Source: patent US20060002888A1, “Polyionenes for treating infections associated with cystic fibrosis” (Genzyme Corporation, priority 2002, published 2006)
≈ marks a conversion by molar mass, not a printed value. Read-outs that look alike come from different tables or passages of the source.

Tests used:
[1] = system: A-549 lung epithelial cells; assay: IC50 in A-549 lung epithelial cells; type: cell-based; conditions: Homo sapiens, A549
Method: (§1) Poly(trimethylene dipyridine-alt-5-oxanonane) having a molecular weight of 0.5 to 1 kDa was tested in A-549 lung epithelial cells to determine its IC50 value in comparison with tobramycin, a conventional antibiotic. In addition, the minimum inhibitory concentrations for the two compounds were determined in vitro for a number of bacterial strains and species. The results are as shown below, where all concentrations are expressed as μg/mL: […]

[2] = system: P. aeruginosa; assay: Minimum inhibitory concentration in vitro (Example 26); type: cell-based; conditions: Pseudomonas aeruginosa
Method: as §1

[3] = system: S. aureus; assay: as above; type: cell-based; conditions: Staphylococcus aureus
Method: as §1

[4] = system: B. cepacia; assay: as above; type: cell-based; conditions: Burkholderia cepacia
Method: as §1

[5] = system: S. maltophilia; assay: as above; type: cell-based; conditions: Stenotrophomonas maltophilia
Method: as §1

[6] = system: P. aeruginosa; conditions: within 11 passages, published studies; cited from earlier work
[7] = system: MRSA; conditions: over 15 passages, published studies; cited from earlier work

In the case of `NC[C@H]1O[C@H](O[C@H]2[C@H](O)[C@@H](O[C@H]3O[C@H](CO)[C@@H](O)[C@H](N)[C@H]3O)[C@H](N)C[C@@H]2N)[C@H](N)C[C@@H]1O` [Tobramycin], the IC50 [1] is reported as 5000 µg/mL (≈ 10700 µM), the MIC ([2]; strain G38, read-out: MIC P. aeruginosa G38) is reported as 0.39 µg/mL (≈ 0.834 µM) and the MIC ([2]; strain PA01, read-out: MIC P. aeruginosa PA01) is reported as 0.39 µg/mL (≈ 0.834 µM). It also gave an MIC [3] of 0.195 µg/mL (≈ 0.417 µM), an MIC [4] greater than 50 µg/mL and an MIC [5] of 25 µg/mL (≈ 53.5 µM).
For `CCn1cc(C(=O)O)c(=O)c2cc(F)c(N3CCNCC3)cc21` [norfloxacin], the “Rise of the MIC” value [6] is given as 10 fold and the “Rise of the MIC” value [7] is given as 85 fold.
In the case of gentamicin, the “Rise of the MIC” value [6] is listed as 190 fold.
